The text below walks through data of patent publication US6407083B1, “Uses of novel organoselenium compounds with pro-oxidant activity” (Oxis International, Inc., priority 1996, dated 2002).

What is called melting point is the temperature of the solid-liquid transition. By mortality is commonly meant the percentage killed.

The test system of data set [1] is MCF-7 cells from a breast cancer of human origin. The data set can be described thus: Cytotoxicity on MCF-7 cells (MTT viability test). In kind it is cell-based. The note with it: for mortality at 0.195 µM: MCF7, 0.195 μM; for mortality at 0.391 µM: MCF7, 0.391 μM; for mortality at 0.781 µM: MCF7, 0.781 μM; for mortality at 1.562 µM: MCF7, 1.562 μM; for mortality at 3.125 µM: MCF7, 3.125 μM; for mortality at 6.25 µM: MCF7, 6.25 μM; for mortality at 12.5 µM: MCF7, 12.5 μM; for mortality at 25 µM: MCF7, 25 μM; for mortality at 50 µM: MCF7, 50 μM. As for the experimental part: The MCF-7 cells from a breast cancer of human origin are cultivated, in an atmosphere of a gaseous mixture of 95% air and 5% CO2, saturated with water, two days before the test, in order to be in a growth phase during the toxicity test. The cells are trypsinized and are collected in a RPMI 1640 medium containing 10% FCS, 10 mM HEPES, 1 mM pyruvate, 4 mM L-glutamine, 100 U/ml penicillin, 100 μg/ml streptomycin, in order to be centrifuged at 1,500 rpm for 10 minutes. The cell pellet is resuspended in the same medium in order to obtain a cell density of 30,000 cells/cm^2.
The compounds of general structure IA described in the present invention are solubilised at 10 mM in absolute ethanol and diluted in RPMI-10% FCS culture medium, the final volume of ethanol in the reaction medium is 0.5% (v/v). The molecules are studied at the following concentrations: 50; 25; 12.5; 6.25; 3.125; 1.562; 0.781; 0.391 and 0.195 μM. Two controls are carried out, in the presence and in the absence of ethanol respectively, using 100 μl of cell suspension of 30,000 cells/cm^2 incubated with 100 μl of RPMI-10% FCS medium and ±0.5% of ethanol (v/v).
Before starting the study, the cells are rinsed with PBS buffer which contains neither calcium nor magnesium. The cells are then incubated with 200 μl of compound under test, or with the medium containing or not 0.5% of ethanol (controls) for either 24 or 48 hours under an atmosphere of a gaseous mixture of 95% air and 5% CO2, saturated with water, at 37° C., then submitted to the viability test with MTT according to the following protocol.
To 200 μl of culture medium are added 50 μl of MTT at 5 mg/ml in PBS buffer. After 4 hours of incubation at 37° C., the plate is centrifuged for 10 minutes at 3,000 rpm. The supernatant is removed and the cell pellet is resuspended in 100 μl of DMSO. This is left to incubate for 10 minutes with stirring at 37° C. The coloration developed is measured at 550 nm against DMSO. The optical density OD=f(living cells) can then be plotted as a function of time.
Background: Formazan colour is commonly taken as a measure of viable cells.

The subject of data set [2] is NADPH in the presence of glutathione (GSH) and glutathione disulfide reductase. Put plainly: Glutathione oxidase activity (consumption of NADPH in the presence of GSH and glutathione disulfide reductase). In kind it is biochemical. The conditions noted are these: pH 7.3, 37° C. As for the experimental part:
To 1.5 ml of 50 mM HEPES buffer, pH 7.3, containing 2.47 mM of reduced glutathione (GSH), 0.32 mM of nicotinamide adenine dinucleotide phosphate (NADPH), and 1.23 units/ml of glutathione disulfide reductase (GR), at 37° C., are added, in the following order:
320 μl of 50 mM HEPES buffer, pH 7.3, containing 0.1 mM of DTPA, pre-equilibrated at 37° C.
30 μl of a 5 mM ethanolic mother-solution of the compound under test or 30 μl of absolute ethanol (blank). Each compound is tested at a final concentration of 81 μM.
The final reaction volume is 1850 μl.
The glutathione oxidase activity is assayed at 37° C. by measuring the reduction in absorbance at 340 nm over 5 minutes. The said initial enzymatic rate or activity is proportional to the slope of the plot of absorbance against time.
The catalytic activity for oxygen reduction in the compounds under test corresponds to the rate of consumption of NADPH.
Furthermore, the effects of superoxide dismutase (SOD), catalase, iodoacetamide (IAA) and Se-GPx on the glutathione oxidase activity of the tested compounds have been studied.
the necessary and sufficient quantity, variable according to the case, of 50 mM HEPES, pH 7.3, containing 0.1 mM of DTPA, pre-equilibrated at 37° C.; the final reaction volume being 1850 μl.
either 100 μl of a solution of 1850 units/ml of SOD in water of ultrapure quality,
or 100 μl of a solution of 1850 units/ml of catalase in water of ultrapure quality and 100 μl of a solution of 1850 units/ml of SOD in water of ultrapure quality,
or 150 μl of a 6.2 mM solution of iodoacetamide in 50 mM HEPES buffer, pH 7.3, containing 0.1 mM DTPA,
or 100 μl of a solution of 10 units/ml of glutathione peroxidase Se-GPx in 50 mM HEPES buffer, pH 7.3, containing 0.1 mM of DTPA,
or 100 μl of a solution of 1850 units/ml of SOD in water of ultrapure quality, and 100 μl of a solution of 10 units/ml of glutathione peroxidase Se-GPx in 50 mM HEPES buffer, pH 7.3, containing 0.1 mM of DTPA.
30 μl of a 5 mM ethanolic mother-solution of the compound under test.
The glutathione oxidase activity is assayed at 37° C. by monitoring the decrease in the absorbance at 340 nm over 15 minutes. The said initial enzymatic rate or activity is proportional to the slope of the plot of absorbance against time.
The consumption of NADPH has been calculated from the slopes of the curves obtained (OD/minute): [formula]
Vt=total volume of the reaction =1850 μl
ε=molar extinction coefficient of NADPH=[…]. M^−1. cm^−1
They are expressed in nmoles of NADPH oxidized per minute.

Molecules are shown by their SMILES.

Consider `CC12CCC3c4ccc(O)cc4CC(CCCCCCCCN4[Se]c5c([N+](=O)[O-])cccc5C4(C)C)C3C1CCC2O` (stereo not shown), for which the melting point worked out at 95 °C.
On the same count and under the same terms, as for `CC(=O)N1CC(C)(C)c2cccc([N+](=O)[O-])c2[Se]1`, the figure is 127 °C.
Turning to `CC(=O)N1[Se]c2c([N+](=O)[O-])cccc2C1(C)C` [Bxt-57004, N-acetyl-3,3-dimethyl-7-nitrobenzisoselenazoline], in data set [1] (24 h), the mortality at 0.195 µM was 0%, the mortality at 0.391 µM is 3.19%, the mortality at 0.781 µM came to 34.9% and the mortality at 1.562 µM turned out to be 59.4%. Besides, in data set [1] (24 h), the mortality at 3.125 µM is 71.2%, the mortality at 6.25 µM stood at 73.3%, the mortality at 12.5 µM came to 79.8% and the mortality at 25 µM came to 92.8%. The compound further returned a mortality at 50 µM in data set [1] (24 h) of 100%. Further, in data set [1] (48 h), the mortality at 0.195 µM is 17.4%, the mortality at 0.391 µM came to 12.8%, the mortality at 0.781 µM stood at 38.6% and the mortality at 1.562 µM was 60.5%. Besides, in data set [1] (48 h), the mortality at 3.125 µM was 69.1%, the mortality at 6.25 µM worked out at 76.4%, the mortality at 12.5 µM came out at 75.8% and the mortality at 25 µM stood at 88.4%. The mortality at 50 µM in data set [1] (48 h) was 100%.
In the case of `CC12CCC3c4ccc(O)cc4CC(CCCCCCCC(=O)N4[Se]c5c([N+](=O)[O-])cccc5C4(C)C)C3C1CCC2O` (stereo not shown), the melting point came to 128 °C.
Take `CC1(C)c2cccc([N+](=O)[O-])c2[Se]N1CCO` [Bxt-57001, N-(2-hydroxyethyl)-3,3-dimethyl-7-nitrobenzisoselenazoline]: in data set [1] (24 h), the mortality at 0.195 µM worked out at 0%, the mortality at 0.391 µM was found to be 0%, the mortality at 0.781 µM amounted to 16.9% and the mortality at 1.562 µM amounted to 29.4%. Moreover, in data set [1] (24 h), the mortality at 3.125 µM came out at 23.9%, the mortality at 6.25 µM was found to be 55%, the mortality at 12.5 µM was found to be 75.3% and the mortality at 25 µM was 99.1%. This compound registered a mortality at 50 µM in data set [1] (24 h) of 99.8%. Also, in data set [1] (48 h), the mortality at 0.195 µM was found to be 0%, the mortality at 0.391 µM worked out at 0%, the mortality at 0.781 µM came to 0% and the mortality at 1.562 µM is 20%. Besides, in data set [1] (48 h), the mortality at 3.125 µM was 23.3%, the mortality at 6.25 µM turned out to be 41.2%, the mortality at 12.5 µM amounted to 58.5% and the mortality at 25 µM worked out at 99.8%. The mortality at 50 µM in data set [1] (48 h) was 100%.
For `CC1(C)CN[Se]c2c([N+](=O)[O-])cccc21`, the melting point was determined as 108 °C.
As to `CC/C(=C(\c1ccccc1)c1ccc(OCCN2[Se]c3c([N+](=O)[O-])cccc3C2(C)C)cc1)c1ccccc1` [Bxt-57007, N-{2-[4-(1,2-diphenylbut-1-en-1-yl)phenoxy]ethyl}3,3-dimethyl-7-nitrobenzisoselenazoline], in data set [1] (24 h), the mortality at 0.195 µM was 0%, the mortality at 0.391 µM is 1.02%, the mortality at 0.781 µM amounted to 8.39% and the mortality at 1.562 µM was determined as 12.9%. In data set [1] (24 h), this compound displayed a mortality at 3.125 µM of 13.3%, a mortality at 6.25 µM of 19.4%, a mortality at 12.5 µM of 28.6% and a mortality at 25 µM of 36.6%. This compound returned a mortality at 50 µM in data set [1] (24 h) of 40.8%. In data set [1] (48 h), this compound returned a mortality at 0.195 µM of 1.07%, a mortality at 0.391 µM of 8.42%, a mortality at 0.781 µM of 14.2% and a mortality at 1.562 µM of 25.1%. In data set [1] (48 h), this compound gave a mortality at 3.125 µM of 18.7%, a mortality at 6.25 µM of 33.2%, a mortality at 12.5 µM of 44.6% and a mortality at 25 µM of 46.8%. In data set [1] (48 h), this compound yielded a mortality at 50 µM of 46.3%.
In data set [1] (24 h), `CC1(C)N[Se]c2c([N+](=O)[O-])cccc21` [Bxt-51062, 3,3-Dimethyl-7-nitrobenzisoselenazoline] yielded a mortality at 0.195 µM of 0%, a mortality at 0.391 µM of 0%, a mortality at 0.781 µM of 23.6% and a mortality at 1.562 µM of 42.7%. In addition, in data set [1] (24 h), the mortality at 3.125 µM was 70.1%, the mortality at 6.25 µM worked out at 100%, the mortality at 12.5 µM stood at 100% and the mortality at 25 µM worked out at 100%. Moreover, in data set [1] (24 h), the mortality at 50 µM is 100%. Besides, in data set [1] (48 h), the mortality at 0.195 µM stood at 2.22%, the mortality at 0.391 µM stood at 0%, the mortality at 0.781 µM came to 32.5% and the mortality at 1.562 µM stood at 58.5%. Besides, in data set [1] (48 h), the mortality at 3.125 µM worked out at 83%, the mortality at 6.25 µM is 100%, the mortality at 12.5 µM was 100% and the mortality at 25 µM is 100%. The mortality at 50 µM in data set [1] (48 h) worked out at 100%. The “GSH oxidase activity, nmole NADPH oxidized/min” value in data set [2] (compound + GSH + GR-NADPH + SOD and CAT) amounted to 79.29 nmole NADPH oxidized/min. Besides, the “GSH oxidase activity, nmole NADPH oxidized/min” value in data set [2] (compound + GSH + GR-NADPH + SOD) worked out at 78.78 nmole NADPH oxidized/min. Moreover, in data set [2] (compound + GSH + GR-NADPH + Se-GPx and SOD), the “GSH oxidase activity, nmole NADPH oxidized/min” value stood at 78.45 nmole NADPH oxidized/min. Moreover, in data set [2] (compound + GSH + GR-NADPH + Se-GPx), the “GSH oxidase activity, nmole NADPH oxidized/min” value came to 80.61 nmole NADPH oxidized/min. For the same compound, the “GSH oxidase activity, nmole NADPH oxidized/min” value in data set [2] (compound + GSH + GR-NADPH ± IAA (iodoacetamide)) worked out at 76.25 nmole NADPH oxidized/min. Also, the “GSH oxidase activity, nmole NADPH oxidized/min” value in data set [2] (compound + GSH + GR-NADPH, no further effector) turned out to be 77.17 nmole NADPH oxidized/min.
